What was measured:
[1] = chronic (26 days) efficacy study in Zucker Diabetic Fatty (ZDF) rats: glucose, HbA1c; format: in vivo, Zucker Diabetic Fatty (ZDF) rat; conditions: for ΔΔ % HbA1c / ΔΔGlucose: 26 days of treatment, change from baseline and vehicle control; for ΔΔGlucose: ED20 doses
Source text: Male ZDF rats were 12 weeks old at the start of the study (Charles River, Inc. Boston, Mass.). […] Baseline fat mass and non-fat mass measurements were taken 3 days before the start of peptide infusion and on day 26 of treatment using a QMR instrument (Echo Medical Systems, Houston, Tex.). […] P-values<0.05 were considered to indicate a significant difference between treatment groups.

[2] = chronic (41 days) efficacy study in diet-induced obese (DIO) Long Evans rats: body weight, body composition, food intake; format: in vivo, Long Evans rat; conditions: for weight loss vs. vehicle: 40 days, subcutaneous osmotic pumps, ED50 doses; for fat mass lost from vehicle control: QMR, day 40 of treatment; for inhibition of cumulative food intake: treatment period, vs. vehicle control
Description: Rats were 17 weeks old at the start of the study. The rats were housed 1 per cage and given ad libitum access to TD.95217 chow and water, maintained on a 12 h light/dark cycle from 5:00 AM to 5:00 PM at 21° C. and 50% relative humidity and allowed to acclimate for at least 7 days prior to baseline measurements. Baseline fat mass and non-fat mass measurements were taken 3 days before the start of peptide infusion and on day 40 of treatment using a QMR instrument (Echo Medical Systems, Houston, Tex.). […] Each rat was implanted with two osmotic pumps subcutaneously in the scapula region containing vehicle or peptide according to their treatment group. Body weight and food intake were measured twice per week beginning three days before the 41-day treatment period. On day 41 of treatment, whole blood was collected by cardiac stick under isoflurane anesthesia. Plasma and serum were then prepared from the whole blood for serum chemistry analysis. All the data are presented as mean±SEM. The data were analyzed in either Prism (GraphPad Software, Inc., La Jolla, Calif.) or Excel using a Student's T-test to compare each group to the appropriate control group. P-values<0.05 were considered to indicate a significant difference between treatment groups.

[3] = cumulative food intake, lean mice (Model A), BioDaQ system; format: in vivo; conditions: lean C57BL/6 mice, 1 mg/kg subcutaneously, cumulative food intake after 6 h, relative to vehicle controls
Description: (§1) Cumulative food intake after 6 h was determined for the PYY analogs in either lean (Model A) or diet-induced obese (DIO) (Model B) C57BL/6 mice in a BioDaQ system for continuous monitoring of food intake (Research Diets Inc., New Brunswick, N.J.). […] Mice were placed singly into the BioDaQ cages and acclimatized for a minimum of 6 days and were allowed ad libitum access to food and water. Approximately 1 hour prior to lights-out, animals were dosed subcutaneously with either vehicle (20 mM Acetate buffer, pH 4.9 or 20% DMSO in water) or analogs dissolved in vehicle (1 mg/kg) (8 animals per group). Once all animals have been dosed, feeder gates were opened providing ad-libitum access to food. Continuous food intake was monitored and collected for 15 hours. […] P-values<0.05 were considered to indicate a significant difference between treatment groups.

[4] = target: T1, human Neuropeptide Y receptor type 2 (Homo sapiens, UniProt P49146); assay: melanophore assay, potency at the human Neuropeptide Y receptor type 2; format: cell-based; conditions: read-out: hNPY Y2 pEC50 (converted)
T1 construct: expressed in transfected cells; host or cells: melanophores; own knowledge: in the cited Jayawickreme protocol these are Xenopus laevis melanophores transfected with the receptor
T1 sequence (P49146 1-381): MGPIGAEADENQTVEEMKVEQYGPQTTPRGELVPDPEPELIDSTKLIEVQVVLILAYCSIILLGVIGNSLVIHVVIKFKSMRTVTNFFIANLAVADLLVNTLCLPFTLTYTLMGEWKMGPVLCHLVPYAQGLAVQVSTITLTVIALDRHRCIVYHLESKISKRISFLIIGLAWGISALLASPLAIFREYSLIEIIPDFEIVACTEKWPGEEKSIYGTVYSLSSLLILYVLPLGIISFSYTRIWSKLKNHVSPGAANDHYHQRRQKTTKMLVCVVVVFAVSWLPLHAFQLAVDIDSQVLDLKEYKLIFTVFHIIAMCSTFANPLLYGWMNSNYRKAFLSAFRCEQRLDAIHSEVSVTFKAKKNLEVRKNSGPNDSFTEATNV

[5] = cumulative food intake, diet-induced obese mice (Model B), BioDaQ system; format: in vivo; conditions: diet-induced obese C57BL/6 mice, 1 mg/kg subcutaneously, cumulative food intake after 6 h, relative to vehicle controls
Description: as §1

Molecule	ΔΔ % HbA1c [1] [%]	ΔΔGlucose [1]	weight loss vs. vehicle [2] [%]	fat mass lost from vehicle control [2] [grams]	inhibition of cumulative food intake [2] [%]	% change in food intake vs vehicle, model A [3] [%]	EC50 [4] [nM]	also measured
exendin-4	−0.4 ± 0.2	-53.9 mg/dL	−11.3	−55.8	−20.1	–	–	ΔΔGlucose ([1]; listed as Exendin-4): -53.9 ± 18.3 mg/dL; ED20 for HbA1c lowering ([1]; dose used for infusion): 0.0055 mg/kg/day; ED50 for weight loss ([2]; dose used for infusion): 0.15 mg/kg/day
CC(C)C[C@H](NC(=O)[C@H](CO)NC(=O)[C@H](C)NC(=O)[C@H](Cc1ccc(O)cc1)NC(=O)[C@H](Cc1ccc(O)cc1)NC(=O)[C@H](CCCNC(=N)N)NC(=O)[C@H](CC(N)=O)NC(=O)[C@H](Cc1c[nH]c2ccccc12)NC(=O)[C@H](CCC(=O)O)NC(=O)[C@H](CCC(=O)O)NC(=O)[C@@H]1CCCN1C(=O)[C@H](CO)NC(=O)[C@H](C)NC(=O)[C@H](CC(=O)O)NC(=O)[C@H](CCCCN)NC(=O)CNC(=O)[C@@H]1CCCN1C(=O)[C@H](C)NC(=O)[C@H](CCC(=O)O)NC(=O)[C@@H]1CCCN1C(=O)[C@H](CCCCN)NC(=O)[C@@H]1CCCN1)C(=O)N[C@@H](CCCNC(=N)N)C(=O)N[C@@H](CCCCN)C(=O)N[C@@H](Cc1ccc(O)cc1)C(=O)N[C@@H](CC(C)C)C(=O)N[C@@H](CC(N)=O)C(=O)N[C@@H](Cc1c[nH]c2ccccc12)C(=O)N[C@H](C(=O)N[C@H](C(=O)N[C@@H](CCCNC(=N)N)C(=O)N[C@@H](CCC(N)=O)C(=O)N[C@@H](CCCNC(=N)N)C(=O)N[C@@H](Cc1ccc(O)cc1)C(N)=O)[C@@H](C)O)C(C)C [Example 10]	–	–	–	–	–	−88	0.0398	–
PYY(3-36)NH2	0.01 ± 0.4	−33.1 ± 17^ mg/dL	−1.3	−10.9	−0.7	–	–	–
CC(C)C[C@H](NC(=O)[C@H](CO)NC(=O)[C@H](C)NC(=O)[C@H](Cc1ccc(O)cc1)NC(=O)[C@H](Cc1ccc(O)cc1)NC(=O)[C@H](CCCNC(=N)N)NC(=O)[C@H](CC(N)=O)NC(=O)[C@H](Cc1c[nH]c2ccccc12)NC(=O)[C@H](CCC(=O)O)NC(=O)[C@H](CCC(=O)O)NC(=O)[C@@H]1CCCN1C(=O)[C@H](CO)NC(=O)[C@H](C)NC(=O)[C@H](CC(=O)O)NC(=O)[C@H](CCCCN)NC(=O)CNC(=O)[C@@H]1CCCN1C(=O)[C@H](Cc1c[nH]cn1)NC(=O)[C@H](CCC(=O)O)NC(=O)[C@@H]1CCCN1C(=O)[C@H](CCCCN)NC(=O)[C@@H]1CCCN1)C(=O)N[C@@H](CCCNC(=N)N)C(=O)N[C@@H](CCCCN)C(=O)N[C@@H](Cc1ccc(O)cc1)C(=O)N[C@@H](CC(C)C)C(=O)N[C@@H](CC(N)=O)C(=O)N[C@@H](Cc1c[nH]c2ccccc12)C(=O)N[C@H](C(=O)N[C@H](C(=O)N[C@@H](CCCNC(=N)N)C(=O)N[C@@H](CCC(N)=O)C(=O)N[C@@H](CCCNC(=N)N)C(=O)N[C@@H](Cc1ccc(O)cc1)C(N)=O)[C@@H](C)O)C(C)C [Example 25]	–	–	–	–	–	–	0.251	% reduction in food intake, model B [5]: −68%
CC[C@H](C)[C@H](N)C(=O)N[C@@H](CCCCN)C(=O)N1CCC[C@H]1C(=O)N1CCC[C@H]1C(=O)N[C@@H](Cc1ccc(O)cc1)C(=O)N1CCC[C@H]1C(=O)NCC(=O)N[C@@H](CS)C(=O)N[C@@H](CC(=O)O)C(=O)N[C@@H](C)C(=O)N[C@@H](CO)C(=O)N1CCC[C@H]1C(=O)N[C@@H](CCC(=O)O)C(=O)N[C@@H](CCC(=O)O)C(=O)N[C@@H](CCC(N)=O)C(=O)N[C@@H](CC(N)=O)C(=O)N[C@@H](CCCCN)C(=O)N[C@@H](Cc1ccc(O)cc1)C(=O)N[C@@H](Cc1ccc(O)cc1)C(=O)N[C@@H](C)C(=O)N[C@@H](CO)C(=O)N[C@@H](CC(C)C)C(=O)N[C@@H](CCCNC(=N)N)C(=O)N[C@@H](C)C(=O)N[C@@H](Cc1ccc(O)cc1)C(=O)N[C@@H](Cc1c[nH]c2ccccc12)C(=O)N[C@@H](CC(N)=O)C(=O)N[C@@H](CC(C)C)C(=O)N[C@H](C(=O)N[C@H](C(=O)N[C@@H](CCCNC(=N)N)C(=O)N[C@@H](CCC(N)=O)C(=O)N[C@@H](CCCNC(=N)N)C(=O)N[C@@H](Cc1ccc(O)cc1)C(N)=O)[C@@H](C)O)C(C)C [Peptide 8]	–	–	–	–	–	-19	0.501	–
H-PKPEAPGEDASPKEWNRYYASLRKYLNWVTRQRY-NH2 [Peptide 3]	–	–	–	–	–	-30	0.631	–

Reference: patent US20160108098A1, “THERAPEUTIC PEPTIDES” (GLAXOSMITHKLINE INTELLECTUAL PROPERTY DEVELOPMENT LIMITED, priority 2013, published 2016)
